Data as given in PMC3179504 (PLoS ONE, 2011).
“Also recorded” adds a separate entry of the source.

Columns and labels:
HEK293-NK1R cells = test: SP-induced membrane blebbing in HEK293-NK1R cells (phase-contrast / DIC / confocal microscopy); assay type: cell-based; conditions: for effect of colchicine on SP-induced blebbing: colchicine pretreatment
RhoA = conditions: microtubule depolymerizing reagent; ref [24], [25]; cited from earlier work
Source text: (§1) It has been shown that Rho GTPases are regulated by microtubule dynamics. […] One of the major intracellular signaling molecules involved in the regulation of tubulin function is p21- activated kinase 1 (PAK), which interacts with a variety of other proteins ...

T cells = conditions: ref [26]; cited from earlier work
Source text: as §1

[1] = test system: myosin light chain 2 (MLC2) (Ser19); assay type: cell-based, human
Method: Cells were lysed in lithium dodecyl sulfate (LDS) sample buffer (Invitrogen, Carlsbad, CA), and lysed using a sonic dismembrator model 100 (Fisher Scientific, Hampton, NH). Cell extracts were subjected to LDS polyacrylamide gel electrophoresis and transferred to polyvinylidene difluoride membranes. After blocking with 5% nonfat dry milk in 0.1% Tween 20/TBS, membranes were incubated with the primary antibody. […] The following non phospho-specific antibodies were used: Beta-Actin and PAK1/2/3 (Cell Signaling Technology, Beverly, MA). Secondary antibodies conjugated to horseradish peroxidase were either anti-rabbit (Biorad, Hercules, CA), or anti-mouse (Cell Signaling Technology, Beverly, MA). Bands were visualized by enhanced chemiluminescence using SuperSignal® West Pico Chemiluminescent Substrate (Thermo Scientific, Rockford, IL) on a VersaDoc Imager (BioRad, Hercules, CA).

Oc1ccc2ccccc2c1SSc1c(O)ccc2ccccc12 [IPA3, 1, 1′-Dithiodi-2-naphthtol]
effect of IPA3 on SP-induced blebbing (HEK293-NK1R cells; IPA3 pretreatment, phase-contrast): not in HEK293 cells; also recorded: no effect on HEK293- NK1R cell's ability to bleb

COC(=O)Nc1nc2ccc(C(=O)c3cccs3)cc2[nH]1 [Nocodazole]
RhoA activation by nocodazole (RhoA): induces RhoA activation
effect of nocodazole on T cell migratory phenotype (T cells): converts T cells from the classical lamellipodial/uropod migratory phenotype to a blebbing migratory phenotype

COc1cc2c(c(OC)c1OC)-c1ccc(OC)c(=O)cc1[C@@H](NC(C)=O)CC2 [colchicine]
cell morphology after colchicine (HEK293-NK1R cells; colchicine): causing the cells to appear less adherent and to round up
effect of colchicine on SP-induced blebbing (HEK293-NK1R cells): not able to block the SP-induced blebbing
effect of colchicine on SP-induced blebbing (HEK293-NK1R cells; listed as Colchicine): unable to block bleb formation

C3 transferase
effect of C3 transferase on MLC phosphorylation [1]: decrease in MLC phosphorylation
